Experimental data: patent publication US8613914B2, “Peptidomimetic sulfamide compounds and antiviral uses thereof” (Novartis AG, priority 2009, dated 2013)

Target: HCV NS3-4A serine protease (full-length NS3-4A protein) (Hepatitis C virus genotype 1a (isolate 1) (HCV), UniProt P26664)
Test: HCV NS3-4A protease assay
Assay type: biochemical, HCV genotype 1a
Settings: strain HCV-1, fluorogenic peptide substrate, read-out: Protease assay Ex. 12 IC50
Procedure: The inhibitory activity of certain compounds of Table A against HCV NS3-4A serine protease is determined in a homogenous assay using the full-length NS3-4A protein (genotype 1a, strain HCV-1) and a commercially available internally-quenched fluorogenic peptide substrate as described by Taliani, M., et al. 1996 Anal. Biochem. 240:60-67, which is incorporated by reference in its entirety.

Sequence of HCV NS3-4A serine protease (full-length NS3-4A protein) (P26664 1027-1657): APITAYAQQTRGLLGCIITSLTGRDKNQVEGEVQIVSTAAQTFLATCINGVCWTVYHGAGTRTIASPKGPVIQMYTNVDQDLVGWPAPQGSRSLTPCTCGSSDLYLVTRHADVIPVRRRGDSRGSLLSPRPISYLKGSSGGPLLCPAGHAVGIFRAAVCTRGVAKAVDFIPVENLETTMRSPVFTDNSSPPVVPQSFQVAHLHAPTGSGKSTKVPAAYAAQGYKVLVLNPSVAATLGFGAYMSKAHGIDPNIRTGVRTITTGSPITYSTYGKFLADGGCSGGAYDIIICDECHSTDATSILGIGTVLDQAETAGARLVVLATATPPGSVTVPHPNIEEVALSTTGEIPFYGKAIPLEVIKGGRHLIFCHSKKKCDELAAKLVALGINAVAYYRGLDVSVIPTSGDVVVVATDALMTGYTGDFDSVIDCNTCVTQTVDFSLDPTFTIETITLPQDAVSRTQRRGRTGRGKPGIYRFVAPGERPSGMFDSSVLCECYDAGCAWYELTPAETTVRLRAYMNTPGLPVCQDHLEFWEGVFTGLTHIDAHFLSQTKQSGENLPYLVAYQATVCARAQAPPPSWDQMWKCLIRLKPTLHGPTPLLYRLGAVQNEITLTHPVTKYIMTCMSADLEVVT
Sequence of HCV NS3-4A serine protease (full-length NS3-4A protein) (P26664 1658-1711 partner): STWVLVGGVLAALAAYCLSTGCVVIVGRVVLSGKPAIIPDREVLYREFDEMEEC

Structure (SMILES) | IC50
C=C[C@@H]1C[C@]1(NC(=O)[C@@H]1C[C@@]2(CN1C(=O)[C@@H](NC(=O)[C@@H](NC(=O)[C@@H]1CCCCN1CC)C1CCCCC1)C(C)(C)C)C(C)(C)C21CCC1)C(=O)NS(=O)(=O)N1CCCC1 [Compound 37, (5R,8S)-7-[(2S)-2-{[(2S)-2-cyclohexyl-2-({[(2S)-1-ethylpiperidin-2-yl]carbonyl}amino)acetyl]amino}-3,3-dimethylbutanoyl]-10,10-dimethyl-N-{(1R,2S)-1-[(pyrrolidin-1-ylsulfonyl)carbamoyl]-2-vinylcyclopropyl}-7-azadispiro[3.0.4.1]decane-8-carboxamide] | 3.3 nM
C=C[C@@H]1C[C@]1(NC(=O)[C@@H]1C[C@@]2(CN1C(=O)[C@@H](NC(=O)[C@@H](NC(=O)[C@@H]1CCCCN1C(C)C)C1CCCCC1)C1CCCC1)C(C)(C)C21CCC1)C(=O)NS(=O)(=O)N1CCCC1 [Compound 66, (5R,8S)-7-[(2S)-2-{[(2S)-2-cyclohexyl-2-({[(2S)-1-isopropylpiperidin-2-yl]carbonyl}amino)acetyl]amino}-2-cyclopentylacetyl]-10,10-dimethyl-N-{(1R,2S)-1-[(pyrrolidin-1-ylsulfonyl)carbamoyl]-2-vinylcyclopropyl}-7-azadispiro[3.0.4.1]decane-8-carboxamide] | 5.5 nM
C=C[C@@H]1C[C@]1(NC(=O)[C@@H]1C[C@@]2(CN1C(=O)[C@@H](NC(=O)[C@@H](NC(=O)[C@@H]1CCCCN1CCF)C(C)(C)C)C(C)(C)C)C(C)(C)C21CCC1)C(=O)NS(=O)(=O)N1CCCC1 [Compound 20, (5R,8S)-7-[(2S)-2-{[(2S)-2-({[(2S)-1-(2-fluoroethyl)piperidin-2-yl]carbonyl}amino)-3,3-dimethylbutanoyl]amino}-3,3-dimethylbutanoyl]-10,10-dimethyl-N-{(1R,2S)-1-[(pyrrolidin-1-ylsulfonyl)carbamoyl]-2-vinylcyclopropyl}-7-azadispiro[3.0.4.1]decane-8-carboxamide] | 70 nM
C=C[C@@H]1C[C@]1(NC(=O)[C@@H]1C[C@@]2(CN1C(=O)[C@@H](NC(=O)[C@@H](NC(=O)Cn1nc(C)cc1C)C1CCCCC1)C(C)(C)C)C(C)(C)C21CCC1)C(=O)NS(=O)(=O)N1CCCC1 [Compound 186, (5R,8S)-7-{(2S)-2-[(cyclohexyl{[(3,5-dimethyl-1H-pyrazol-1-yl)acetyl]amino}acetyl)amino]-3,3-dimethylbutanoyl}-10,10-dimethyl-N-{(1R,2S)-1-[(pyrrolidin-1-ylsulfonyl)carbamoyl]-2-vinylcyclopropyl}-7-azadispiro[3.0.4.1]decane-8-carboxamide] | 65 nM
C=C[C@@H]1C[C@]1(NC(=O)[C@@H]1C[C@@]2(CN1C(=O)[C@@H](NC(=O)[C@@H](NC(=O)OC(C)(C)C)C(C)(C)C)C(C)(C)C)C(C)(C)C21CCC1)C(=O)NS(=O)(=O)N1CCOCC1 [Compound 5, tert-butyl [(1S)-1-{[(1S)-1-{[(5R,8S)-10,10-dimethyl-8-({(1R,2S)-1-[(morpholin-4-ylsulfonyl)carbamoyl]-2-vinylcyclopropyl}carbamoyl)-7-azadispiro[3.0.4.1]dec-7-yl]carbonyl}-2,2-dimethylpropyl]carbamoyl}-2,2-dimethylpropyl]carbamate] | 6650 nM
C=C[C@@H]1C[C@]1(NC(=O)[C@@H]1C[C@@]2(CN1C(=O)[C@@H](NC(=O)[C@@H](NC(=O)[C@@H]1CCCN1CC)C1CCCCC1)C(C)(C)C)C(C)(C)C21CCC1)C(=O)NS(=O)(=O)N1CCCC1 [Compound 39, (5R,8S)-7-[(2S)-2-{[(2S)-2-cyclohexyl-2-({[(2S)-1-ethylpyrrolidin-2-yl]carbonyl}amino)acetyl]amino}-3,3-dimethylbutanoyl]-10,10-dimethyl-N-{(1R,2S)-1-[(pyrrolidin-1-ylsulfonyl)carbamoyl]-2-vinylcyclopropyl}-7-azadispiro[3.0.4.1]decane-8-carboxamide] | 2.5 nM
